Assay [1] deals with Arid1a^fl/fl mouse urothelium. Nature of the assay: γH2AX and CC3 staining of Arid1a^fl/fl urothelium, A-484954 pretreatment before 9-day BBN. Format: in vivo. The conditions noted are these: Arid1a^fl/fl mice pretreated with A-484954 before a 9-day course of BBN. The protocol:
(§1) Bladder samples were collected, fixed in 4% paraformaldehyde (PFA), dehydrated with ethanol, and embedded in paraffin wax. Paraffin blocks were sectioned (5 μm) using a rotary microtome and hematoxylin and eosin (H&E) stained. Immunohistochemistry (IHC) staining was performed after rehydrating the tissue. In brief, antigen retrieval was performed by preheating in sodium citrate buffer (pH 6.0 or pH 9) solution for 7-30 minutes at 95° C.-125° C. in a pressure cooker. Hydrogen peroxidase (Vector Laboratories) treatment was done for 5 minutes to quench endogenous peroxides. Tissue was blocked in 1% BSA for 1 hour. Primary antibodies were applied and incubated at room temperature for 1 hour in a humidified chamber followed by secondary antibody (EnVision™ system HRP-labeled polymer, Dako, K4003). Color development was achieved by applying 3,3′-diaminobenzidine (DAB) solution (Agilent Technology) for 2 to 5 minutes, depending on the primary antibody. The sections were counterstained with hematoxylin (Agilent Technology), washed, and cover-slipped using aqueous-based mounting medium (Agilent Technology). All IHC slides were scanned using Aperio ScanScope AT Turbo (Leica Biosystems). […]

Assay [2] concerns the target T1, eEF2K (Mus musculus, UniProt O08796).
T1 construct: from tissue; host or cells: bladder urothelium of Arid1a^fl/fl mice dosed in vivo
T1 sequence (O08796 1-724): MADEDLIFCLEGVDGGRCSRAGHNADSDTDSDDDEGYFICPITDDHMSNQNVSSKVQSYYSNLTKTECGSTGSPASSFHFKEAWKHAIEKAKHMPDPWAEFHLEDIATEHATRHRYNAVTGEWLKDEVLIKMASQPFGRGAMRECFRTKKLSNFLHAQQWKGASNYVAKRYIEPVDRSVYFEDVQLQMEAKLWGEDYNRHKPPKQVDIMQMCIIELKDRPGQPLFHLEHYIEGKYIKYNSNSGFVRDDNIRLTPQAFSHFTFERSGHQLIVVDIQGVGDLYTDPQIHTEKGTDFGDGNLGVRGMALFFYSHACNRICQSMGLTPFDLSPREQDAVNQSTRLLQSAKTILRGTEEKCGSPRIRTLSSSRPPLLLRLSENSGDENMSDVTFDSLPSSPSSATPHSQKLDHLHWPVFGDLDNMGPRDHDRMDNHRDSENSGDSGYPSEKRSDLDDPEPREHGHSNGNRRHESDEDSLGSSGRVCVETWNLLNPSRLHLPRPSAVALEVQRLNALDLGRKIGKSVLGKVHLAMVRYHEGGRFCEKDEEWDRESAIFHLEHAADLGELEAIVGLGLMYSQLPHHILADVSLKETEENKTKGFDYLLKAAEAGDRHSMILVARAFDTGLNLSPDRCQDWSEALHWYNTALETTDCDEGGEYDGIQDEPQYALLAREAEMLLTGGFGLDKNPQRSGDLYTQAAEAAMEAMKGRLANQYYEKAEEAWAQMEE
Nature of the assay: IHC of phospho-eEF2 (T56) in Arid1a^fl/fl mice after eEF2K inhibitor treatment. Format: in vivo. Particulars: A-484954 10 mg/kg IP daily for 15 days. On the procedure: as §1

Assay [3] has as its system protein synthesis in Arid1a^fl/fl bladders. Nature of the assay: In vivo puromycin incorporation assay in Arid1a^fl/fl mice after eEF2K inhibitor treatment. Also on record: species or system mouse. The conditions noted are these: A-484954 10 mg/kg IP daily for 15 days. The protocol: Immunofluorescent (IF) staining was performed in the following manner. Antigen retrieval was conducted by preheating in sodium citrate buffer (pH 6.0) for 30 minutes at 95° C. in a pressure cooker. Tissue was blocked in 1% BSA solution for 2 hours or in M.O.M® blocking reagent (Vector Laboratories) for 1 hour at room temperature, followed by blocking in 1% BSA solution for 2 hours. Primary antibodies were applied overnight at 4° C. in a humidified chamber, and secondary antibodies (Alexa Fluor® 594; Alexa Fluor® 488; or Alexa Fluor® 647 (Invitrogen)) were applied for 1 hour at room temperature. All IF slides were mounted using ProLong™ gold mounting media with DAPI (Fisher Scientific, P36935). IF slides were scanned using an Aperio Scanscope FL (Leica Biosystems). The following primary antibodies were used for IF study: anti-Cytokeratin 5 (Biolegend Inc), anti-puromycin (EMD Millipore), anti-p-eEF2K (S366) (Cell Signaling Technology), anti-ARID1A (Sigma), or anti-Cytokeratin 5 (Abcam). Image analysis was done using semiautomated image analysis software (HALO, Indica Labs).
For the in vivo puromycin incorporation assay, mice were injected i.p. with 200 μL of 2.5 mM puromycin (Fisher) and euthanized after 1 hour. For in vitro puromycin incorporation assay, cells were treated with 1 μM puromycin for 30 minutes at 37° C. […]

Consider `CCn1c(=O)c2cc(C(N)=O)c(N)nc2n(C2CC2)c1=O` [A-484954], for which, in assay [1], the “DNA damage (γH2AX)” value is “markedly decreased” and the “apoptosis (CC3)” value is on record as “markedly decreased”. The “eEF2 phosphorylation (T56)” value in assay [2] is “attenuation of eEF2 phosphorylation”. The “protein synthesis (puromycin incorporation)” value in assay [3] is on record as “restoration of protein synthesis”.

For the origin of these results see patent US20240350488A1, “METHODS OF TREATING SWI/SNF DEREGULATED CANCERS” (Fred Hutchinson Cancer Center, priority 2023, published 2024).
